Measurements as given in ChEMBL document CHEMBL4602695, “Discovery and SARs of 5-Chloro-N4-phenyl-N2-(pyridin-2-yl)pyrimidine-2,4-diamine Derivatives as Oral Available and Dual CDK 6 and 9 Inhibitors with Potent Antitumor Activity” (J Med Chem, 2020).
Activity calls are given as the source filed them. No cut-off for these calls is given here.

Experiments:
Jurkat = assay: Antiproliferative activity against human Jurkat cells assessed as inhibition of cell proliferation measured after 48 hrs by CCK8 assay; assay type: functional, cell-based
MDA-MB-231 = assay: Antiproliferative activity against human MDA-MB-231 cells assessed as inhibition of cell proliferation measured after 48 hrs by CCK8 assay; assay type: functional, cell-based; conditions: for GI50: MDA-MB-231, 48 h
CDK6/cyclin D3 = CDK6/cyclin D3 (Homo sapiens, UniProt Q00534); design: species or system Sf9
CDK6/cyclin D3, sequence (P30281 whole entry): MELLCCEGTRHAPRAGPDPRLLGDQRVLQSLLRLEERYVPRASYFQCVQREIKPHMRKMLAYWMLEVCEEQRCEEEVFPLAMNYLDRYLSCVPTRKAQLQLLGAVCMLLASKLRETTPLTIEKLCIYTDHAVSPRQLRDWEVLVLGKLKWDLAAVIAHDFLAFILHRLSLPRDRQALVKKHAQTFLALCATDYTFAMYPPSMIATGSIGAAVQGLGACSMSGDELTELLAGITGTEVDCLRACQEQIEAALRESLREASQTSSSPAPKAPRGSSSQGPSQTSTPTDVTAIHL
CDK6/cyclin D3, sequence (Q00534 whole entry): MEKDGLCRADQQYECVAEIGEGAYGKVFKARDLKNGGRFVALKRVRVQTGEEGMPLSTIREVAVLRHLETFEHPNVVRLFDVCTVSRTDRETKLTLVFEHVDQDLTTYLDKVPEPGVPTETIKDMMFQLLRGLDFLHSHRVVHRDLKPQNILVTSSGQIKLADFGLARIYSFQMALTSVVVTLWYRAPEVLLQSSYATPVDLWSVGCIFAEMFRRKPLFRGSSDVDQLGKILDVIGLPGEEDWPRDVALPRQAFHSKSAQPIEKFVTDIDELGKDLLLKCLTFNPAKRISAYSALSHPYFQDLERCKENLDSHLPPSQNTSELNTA

CDK9/Cyclin K = CDK9/Cyclin K (Homo sapiens, UniProt P50750); assay: biochemical
CDK9/Cyclin K, sequence (P50750 whole entry): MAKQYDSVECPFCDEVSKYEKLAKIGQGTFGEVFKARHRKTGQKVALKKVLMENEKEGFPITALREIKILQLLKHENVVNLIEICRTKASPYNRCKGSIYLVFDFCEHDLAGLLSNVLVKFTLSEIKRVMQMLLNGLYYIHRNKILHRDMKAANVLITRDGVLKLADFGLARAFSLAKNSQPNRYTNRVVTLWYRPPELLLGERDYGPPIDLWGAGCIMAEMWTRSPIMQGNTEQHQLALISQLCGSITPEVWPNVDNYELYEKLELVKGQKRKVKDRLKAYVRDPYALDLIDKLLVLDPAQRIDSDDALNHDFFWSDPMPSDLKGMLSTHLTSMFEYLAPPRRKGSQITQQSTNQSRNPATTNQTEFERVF
CDK9/Cyclin K, sequence (O75909 whole entry, further chain): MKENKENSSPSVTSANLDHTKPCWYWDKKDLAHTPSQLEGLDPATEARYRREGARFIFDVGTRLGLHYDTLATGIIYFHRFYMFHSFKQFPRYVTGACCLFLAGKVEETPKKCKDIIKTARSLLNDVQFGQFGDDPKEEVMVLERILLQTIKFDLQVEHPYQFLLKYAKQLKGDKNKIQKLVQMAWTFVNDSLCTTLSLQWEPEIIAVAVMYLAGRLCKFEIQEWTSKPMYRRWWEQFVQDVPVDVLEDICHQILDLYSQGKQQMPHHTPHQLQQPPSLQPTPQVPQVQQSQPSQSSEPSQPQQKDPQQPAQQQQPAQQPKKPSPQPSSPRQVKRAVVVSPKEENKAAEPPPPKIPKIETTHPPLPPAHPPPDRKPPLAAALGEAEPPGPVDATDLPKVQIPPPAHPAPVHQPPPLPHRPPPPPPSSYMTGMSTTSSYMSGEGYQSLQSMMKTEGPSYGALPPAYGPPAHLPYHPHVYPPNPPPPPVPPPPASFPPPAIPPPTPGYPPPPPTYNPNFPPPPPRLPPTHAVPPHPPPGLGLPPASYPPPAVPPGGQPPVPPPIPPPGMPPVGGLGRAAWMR

[1] = Cytotoxicity against human L02 cells assessed as inhibition of cell proliferation measured after 48 hrs by CCK8 assay; assay type: cell-based
CDK2/Cyclin A2 = CDK2/Cyclin A2 (Homo sapiens, UniProt P24941); design: species or system Sf9
MCF7 = assay: Antiproliferative activity against human MCF7 cells assessed as inhibition of cell proliferation measured after 48 hrs by CCK8 assay; assay type: functional, cell-based; conditions: for GI50: MCF7, 48 h
[2] = biological target: CDK9/Cyclin K (Homo sapiens) (UniProt P50750+O75909); conditions: Sf9
[3] = biological target: CDK6/cyclin D3 (Homo sapiens) (UniProt P30281+Q00534); conditions: Sf9

SMILES: Cc1ccccc1Nc1nc(Nc2ccc(N3CCNCC3)cn2)ncc1Cl
- GI50 (Jurkat): 7.87 µM
- GI50 (MDA-MB-231): 5.06 µM
- IC50 (CDK6/cyclin D3): 0.042 µM
- IC50 (CDK9/Cyclin K): 0.114 µM
- GI50 at 48 h [1]: 1.85 µM
- IC50 (CDK2/Cyclin A2): 2.06 µM
- GI50 (MCF7): 3.41 µM

SMILES: CN1CCN(c2ccc(Nc3ncc(Cl)c(Nc4ccc(F)cc4)n3)nc2)CC1
- inhibition [2]: inactive

SMILES: COc1cc(Nc2ncc(Cl)c(Nc3ccccc3C)n2)ccn1
- GI50 (Jurkat): 9.38 µM
- GI50 (MDA-MB-231): 42.6 µM
- IC50 (CDK6/cyclin D3): > 10 µM
- IC50 (CDK9/Cyclin K): 0.908 µM
- GI50 at 48 h [1]: 18.4 µM
- IC50 (CDK2/Cyclin A2): 0.074 µM
- GI50 (MCF7): > 100 µM

SMILES: COc1ccccc1CNc1nc(Nc2ccc(N3CCN(C)CC3)cn2)ncc1Cl
- GI50 (Jurkat): 10.8 µM
- GI50 (MDA-MB-231): 29.3 µM
- IC50 (CDK6/cyclin D3): > 10 µM
- IC50 (CDK9/Cyclin K): > 10 µM
- GI50 at 48 h [1]: 25.5 µM
- IC50 (CDK2/Cyclin A2): > 10 µM
- GI50 (MCF7): > 100 µM

SMILES: CN1CCN(c2ccc(Nc3ncc(Cl)c(NCCc4ccccc4F)n3)nc2)CC1
- GI50 (Jurkat): 14.3 µM
- GI50 (MDA-MB-231): > 100 µM
- IC50 (CDK6/cyclin D3): 3.71 µM
- IC50 (CDK9/Cyclin K): > 10 µM
- GI50 at 48 h [1]: 9.67 µM
- IC50 (CDK2/Cyclin A2): > 10 µM
- GI50 (MCF7): 8.73 µM

SMILES: Cc1ccccc1Nc1nc(Nc2ccc(N3CCOCC3)cc2)ncc1Cl
- GI50 (Jurkat): 8.36 µM
- GI50 (MDA-MB-231): 11.3 µM
- IC50 (CDK6/cyclin D3): 1.69 µM
- IC50 (CDK9/Cyclin K): 1.12 µM
- GI50 at 48 h [1]: 5.37 µM
- IC50 (CDK2/Cyclin A2): 2.68 µM
- GI50 (MCF7): > 100 µM

SMILES: Cc1ccccc1Nc1nc(NCc2ccccc2)ncc1Cl
- GI50 (Jurkat): > 100 µM
- GI50 (MDA-MB-231): > 100 µM
- IC50 (CDK6/cyclin D3): > 10 µM
- IC50 (CDK9/Cyclin K): > 10 µM
- GI50 at 48 h [1]: > 100 µM
- IC50 (CDK2/Cyclin A2): > 10 µM
- GI50 (MCF7): > 100 µM

SMILES: CN1CCN(c2ccc(Nc3ncc(Cl)c(Nc4ccccc4F)n3)nc2)CC1
- inhibition (Jurkat): Active
- inhibition (MDA-MB-231): Active
- inhibition [3]: inactive
- inhibition [2]: inactive
- inhibition (MCF7): Active

SMILES: Cc1cc(C)c(Nc2nc(Nc3ccc(N4CCN(C)CC4)cn3)ncc2Cl)c(C)c1
- GI50 (Jurkat): 7.6 µM
- GI50 (MDA-MB-231): 21 µM
- IC50 (CDK6/cyclin D3): 8.87 µM
- IC50 (CDK9/Cyclin K): > 10 µM
- GI50 at 48 h [1]: 20.5 µM
- IC50 (CDK2/Cyclin A2): > 10 µM
- GI50 (MCF7): 9.47 µM

SMILES: CN1CCN(c2ccc(Nc3ncc(Cl)c(NCCc4ccc(F)cc4)n3)nc2)CC1
- GI50 (Jurkat): > 100 µM
- GI50 (MDA-MB-231): 28.5 µM
- IC50 (CDK6/cyclin D3): > 10 µM
- IC50 (CDK9/Cyclin K): > 10 µM
- GI50 at 48 h [1]: > 100 µM
- IC50 (CDK2/Cyclin A2): > 10 µM
- GI50 (MCF7): > 100 µM

SMILES: Cc1ccccc1Nc1nc(NCCc2ccccc2)ncc1Cl
- GI50 (Jurkat): > 100 µM
- GI50 (MDA-MB-231): > 100 µM
- IC50 (CDK6/cyclin D3): > 10 µM
- IC50 (CDK9/Cyclin K): > 10 µM
- GI50 at 48 h [1]: > 100 µM
- IC50 (CDK2/Cyclin A2): > 10 µM
- GI50 (MCF7): > 100 µM
